In brackets after ≈: the same amount, converted by molar mass. Activity calls are given as the source filed them. No cut-off for these calls is given here.
Tests used:
[1] = Lyophilization solubility of the compound in phosphate buffer at pH 6.5 incubated for 1 hr under stirring condition and 2 hrs under shaking condition by HPLC-UV analysis; format: physicochemical
Hepatitis B virus [2] = assay: Antiviral activity against HBV infected in human HepG2.2.15 cells assessed as reduction in HBV DNA replication measured after 5 days by qPCR analysis; format: functional, organism-based; conditions: HepG2.2.15, 120 h
[3] = Metabolic stability in human liver microsomes assessed as clearance at 1 uM preincubated for 10 mins and measured upto 30 mins in presence of NADPH generating system by LC-MS/MS analysis; format: ADME, Microsome; conditions: time < 40 min
[4] = Metabolic stability in mouse liver microsomes assessed as clearance at 1 uM preincubated for 10 mins and measured upto 30 mins in presence of NADPH generating system by LC-MS/MS analysis; format: ADME, Microsome; conditions: time < 40 min
[5] = Selectivity index, ratio of CC50 for human HepDE19 cells assessed as reduction in cell viability to EC50 for HBV infected in human HepG2.2.15 cells assessed as reduction in HBV DNA replication; format: toxicity, cell-based; conditions: HBV-infected HepG2.2.15 cells (EC50)
[6] = Cytotoxicity against human HepDE19 cells assessed as reduction in cell viability measured after 5 days by CCK-8 method; format: functional; conditions: HepDE19, 120 h, time 5 day
[7] = Cmax in C57BL/6 mouse plasma at 5 mg/kg, po administered as single dose measured upto 24 hrs by LC-MS/MS analysis; format: ADME, organism-based; parameters: dose 5 mg/kg, time < 24 hrs, route po
[8] = Plasma protein binding in mouse assessed as free fraction incubated for 5 hrs by LC-MS/MS analysis; format: ADME, cell-free
[9] = AUC (0 to infinity) in C57BL/6 mouse plasma at 5 mg/kg, po administered as single dose measured upto 24 hrs by LC-MS/MS analysis; format: ADME, organism-based; parameters: time < 24 hrs, dose 5 mg/kg, route po
Hepatitis B virus [10] = assay: In vivo antiviral activity against AAV encapsidated HBV infected in C57BL/6 mouse model assessed as log reduction in serum HBV DNA level at 20 mg/kg, BID measured on day 4 by quantitative real-time PCR analysis; format: functional; conditions: time 4 day
[11] = Ratio of AUC (0 to infinity) in liver to plasma of C57BL/6 mouse liver at 5 mg/kg, po administered as single dose measured upto 24 hrs by LC-MS/MS analysis; format: ADME, organism-based; conditions: read-out: Ratio AUC
[12] = Volume of distribution at steady state in C57BL/6 mouse plasma at 2 mg/kg, iv administered as single dose measured upto 24 hrs by LC-MS/MS analysis; format: ADME, organism-based; conditions: read-out: Vdss
[13] = Half life in C57BL/6 mouse plasma at 2 mg/kg, iv administered as single dose measured upto 24 hrs by LC-MS/MS analysis; format: ADME, organism-based
Hepatitis B virus [14] = assay: In vivo antiviral activity against AAV encapsidated HBV infected in C57BL/6 mouse model assessed as log reduction in serum HBV DNA level at 20 mg/kg, BID measured on day 2 by quantitative real-time PCR analysis; format: functional; conditions: time 2 day
[15] = Oral bioavailability in C57BL/6 mouse plasma at 5 mg/kg administered as single dose measured upto 24 hrs by LC-MS/MS analysis; format: ADME, organism-based
[16] = Clearance in C57BL/6 mouse plasma at 2 mg/kg, iv administered as single dose measured upto 24 hrs by LC-MS/MS analysis; format: ADME, organism-based
Hepatitis B virus [17] = assay: In vivo antiviral activity against AAV encapsidated HBV infected in C57BL/6 mouse model assessed as reduction in serum HBV DNA level at 20 mg/kg, BID measured on day 6 by quantitative real-time PCR analysis; format: functional, organism-based; conditions: time 6.0 day
[18] = AUC (0 to infinity) in C57BL/6 mouse plasma at 2 mg/kg, iv administered as single dose measured upto 24 hrs by LC-MS/MS analysis; format: ADME, organism-based; parameters: dose 2 mg/kg, time < 24 hrs, route iv
[19] = AUC (0 to infinity) in C57BL/6 mouse liver at 5 mg/kg, po administered as single dose measured upto 24 hrs by LC-MS/MS analysis; format: ADME, organism-based; parameters: time < 24 hrs, dose 5 mg/kg, route po
Hepatitis B virus [20] = assay: Inhibition of HBV Cp150 dimer assembly assessed as formation of large abnormal particles at 20 uM incubated for 2 hrs by transmission electron microscopy
Hepatitis B virus [21] = assay: Inhibition of HBV replication transfected in human HepG2.2.15 cells assessed as inhibition of encapsidated DNA formation in cell lysate incubated for 5 days by SDS-PAGE analysis; format: functional, organism-based; conditions: dose <= 10.0 µM, time 5.0 day
Hepatitis B virus [22] = assay: Inhibition of HBV replication transfected in human HepG2.2.15 cells assessed as assessed as induction of total core protein degradation in cell lysate at upto 10 uM incubated for 5 days by SDS-PAGE analysis; format: functional, organism-based; conditions: time 5.0 day
Hepatitis B virus [23] = assay: Inhibition of HBV replication transfected in human HepG2.2.15 cells assessed as assessed as induction of capsid degradation in cell lysate at upto 10 uM incubated for 5 days by SDS-PAGE analysis; format: functional, organism-based; conditions: time 5.0 day
[24] = AUC (0 to infinity) in C57BL/6 mouse plasma at 1 mg/kg, iv administered as single dose measured upto 24 hrs by LC-MS/MS analysis; format: ADME, organism-based; parameters: dose 1 mg/kg, time < 24 hrs, route iv
[25] = Ratio of AUC (0 to infinity) in liver to plasma of C57BL/6 mouse liver at 3 mg/kg, po administered as single dose measured upto 24 hrs by LC-MS/MS analysis; format: ADME, organism-based; conditions: read-out: Ratio AUC
[26] = AUC (0 to infinity) in C57BL/6 mouse plasma at 3 mg/kg, po administered as single dose measured upto 24 hrs by LC-MS/MS analysis; format: ADME, organism-based; parameters: time < 24 hrs, dose 3 mg/kg, route po
[27] = Clearance in C57BL/6 mouse plasma at 1 mg/kg, iv administered as single dose measured upto 24 hrs by LC-MS/MS analysis; format: ADME, organism-based
[28] = Cmax in C57BL/6 mouse plasma at 3 mg/kg, po administered as single dose measured upto 24 hrs by LC-MS/MS analysis; format: ADME, organism-based; parameters: time < 24 hrs, dose 3 mg/kg, route po
[29] = AUC (0 to infinity) in C57BL/6 mouse liver at 3 mg/kg, po administered as single dose measured upto 24 hrs by LC-MS/MS analysis; format: ADME, organism-based; parameters: dose 3 mg/kg, time < 24 hrs, route po
[30] = Half life in C57BL/6 mouse plasma at 1 mg/kg, iv administered as single dose measured upto 24 hrs by LC-MS/MS analysis; format: ADME, organism-based
[31] = Oral bioavailability in C57BL/6 mouse plasma at 3 mg/kg administered as single dose measured upto 24 hrs by LC-MS/MS analysis; format: ADME, organism-based
[32] = Volume of distribution at steady state in C57BL/6 mouse plasma at 1 mg/kg, iv administered as single dose measured upto 24 hrs by LC-MS/MS analysis; format: ADME, organism-based; conditions: read-out: Vdss

| solubility at 3 h [1] [µg/mL] | EC50 (Hepatitis B virus [2]) [nM] | CLhep predicted at 1 µM [3] [mL/min/kg] | CLhep predicted at 1 µM [4] [mL/min/kg] | SMILES | selectivity ratio [5] | CC50 [6] [nM] | other results |
| --- | --- | --- | --- | --- | --- | --- | --- |
| 525 (≈ 1290 µM) | 52 | 15 | 73 | C[C@H]1[C@H](C)n2ncc(N3CCCC3=O)c2CN1C(=O)Nc1cc(F)c(F)c(F)c1 | > 1920 | > 100000 |  |
| < 1 | 33 | 19 | 74 | O=C(Nc1ccc(F)c(Cl)c1)N1CCn2ncc(-c3ccccc3F)c2C1 | 476 | 16000 |  |
|  |  |  |  | COC(=O)C1=C(CN2CC(F)(F)C[C@H]2C(=O)O)NC(c2nccs2)=N[C@H]1c1ccc(F)cc1Cl |  |  | Activity (Hepatitis B virus [20]): Active; inhibition (Hepatitis B virus [21]): Dose-Dependent Effect; inhibition (Hepatitis B virus [22]): Active; inhibition (Hepatitis B virus [23]): Active |
| 6 (≈ 15.4 µM) | 128 | 14 | 69 | O=C(Nc1ccc(F)c(Cl)c1)N1CCn2ncc(-c3ncc(F)cn3)c2C1 | 250 | 32000 |  |
| 150 (≈ 395 µM) | 252 | 6.2 | 51 | O=C(Nc1cc(F)c(F)c(F)c1)N1CCn2ncc(N3CCCC3=O)c2C1 | 101 | 26000 |  |
| 3 (≈ 8.92 µM) | 323 | 17 | 76 | O=C(Nc1ccccc1)N1CCn2ncc(-c3ccc(F)cc3)c2C1 | 204 | 66000 |  |
| < 1 | 124 | 14 | 56 | O=C(Nc1ccc(F)cc1)N1CCn2ncc(-c3ccc(F)cc3)c2C1 | 443 | 55000 | AUC(0-inf) [24]: 208 ng·h/mL; Kp at 24 h [25]: 18.5; AUC(0-inf) [26]: 276 ng·h/mL; clearance [27]: 146 mL/min/kg; Cmax [28]: 407 ng/mL; AUC(0-inf) [29]: 5110 ng·h/mL; half-life [30]: 0.36 h; bioavailability [31]: 44%; Vd [32]: 2.1 L/kg |

| SMILES | solubility at 3 h [1] [µg/mL] | EC50 (Hepatitis B virus [2]) [nM] | CLhep predicted at 1 µM [3] [mL/min/kg] | CLhep predicted at 1 µM [4] [mL/min/kg] | selectivity ratio [5] | CC50 [6] [nM] | other results |
| --- | --- | --- | --- | --- | --- | --- | --- |
| C[C@H]1Cn2ncc(N3CCOCC3=O)c2CN1C(=O)Nc1ccc(F)c(Cl)c1 | 156 (≈ 383 µM) | 27 | 7.1 | 39 | > 3700 | > 100000 | Cmax [7]: 1330 ng/mL; fraction unbound at 5 h [8]: 0.31; AUC(0-inf) [9]: 4180 ng·h/mL; log(activity) (Hepatitis B virus [10]): 0.5; Kp at 24 h [11]: 2.6; Vd [12]: 1.4 L/kg; half-life [13]: 2 h; log(activity) (Hepatitis B virus [14]): 0.67; bioavailability [15]: 48%; clearance [16]: 10 mL/min/kg; Activity (Hepatitis B virus [17]): inactive; AUC(0-inf) [18]: 3520 ng·h/mL; AUC(0-inf) [19]: 10900 ng·h/mL |
